Tests used:
[1] = target: T1, Serine/threonine-protein kinase ULK1 (Homo sapiens) (UniProt O75385); experiment: ULK1(h) Eurofins kinase panel; details: Compound concentration 1.0 uM
T1 sequence (whole entry): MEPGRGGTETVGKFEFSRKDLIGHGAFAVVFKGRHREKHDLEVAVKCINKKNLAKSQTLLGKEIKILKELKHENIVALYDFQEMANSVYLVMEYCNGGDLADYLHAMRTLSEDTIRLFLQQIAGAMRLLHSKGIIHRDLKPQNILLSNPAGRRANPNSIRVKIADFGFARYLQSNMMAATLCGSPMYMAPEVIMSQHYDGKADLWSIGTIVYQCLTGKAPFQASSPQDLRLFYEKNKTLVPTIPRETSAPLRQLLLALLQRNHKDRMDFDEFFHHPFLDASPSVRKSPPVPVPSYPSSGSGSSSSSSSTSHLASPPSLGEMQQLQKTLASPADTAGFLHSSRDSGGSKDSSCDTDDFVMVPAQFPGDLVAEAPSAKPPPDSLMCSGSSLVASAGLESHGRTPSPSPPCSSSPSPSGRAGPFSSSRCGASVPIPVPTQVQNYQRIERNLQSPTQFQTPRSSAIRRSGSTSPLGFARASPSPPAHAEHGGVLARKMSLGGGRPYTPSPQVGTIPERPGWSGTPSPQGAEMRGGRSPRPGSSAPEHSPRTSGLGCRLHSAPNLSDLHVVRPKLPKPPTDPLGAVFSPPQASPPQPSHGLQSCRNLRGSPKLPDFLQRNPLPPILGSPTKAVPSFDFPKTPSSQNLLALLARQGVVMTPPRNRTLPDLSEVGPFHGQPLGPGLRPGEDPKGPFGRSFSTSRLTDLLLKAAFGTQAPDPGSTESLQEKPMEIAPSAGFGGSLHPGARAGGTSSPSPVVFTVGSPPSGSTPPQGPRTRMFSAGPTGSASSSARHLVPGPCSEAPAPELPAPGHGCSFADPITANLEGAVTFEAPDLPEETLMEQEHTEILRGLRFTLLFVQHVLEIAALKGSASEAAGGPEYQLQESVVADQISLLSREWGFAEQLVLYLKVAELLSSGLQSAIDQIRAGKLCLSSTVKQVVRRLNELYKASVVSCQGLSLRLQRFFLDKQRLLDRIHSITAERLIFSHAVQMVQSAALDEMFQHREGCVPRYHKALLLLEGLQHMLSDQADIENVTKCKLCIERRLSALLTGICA

[2] = target: Casein kinase II subunit alpha (Homo sapiens) (UniProt P68400); experiment: CK2alpha1(h) Eurofins kinase panel; details: Compound concentration 1.0 uM
Sequence of Casein kinase II subunit alpha (Homo sapiens) (P68400 whole entry, looked up): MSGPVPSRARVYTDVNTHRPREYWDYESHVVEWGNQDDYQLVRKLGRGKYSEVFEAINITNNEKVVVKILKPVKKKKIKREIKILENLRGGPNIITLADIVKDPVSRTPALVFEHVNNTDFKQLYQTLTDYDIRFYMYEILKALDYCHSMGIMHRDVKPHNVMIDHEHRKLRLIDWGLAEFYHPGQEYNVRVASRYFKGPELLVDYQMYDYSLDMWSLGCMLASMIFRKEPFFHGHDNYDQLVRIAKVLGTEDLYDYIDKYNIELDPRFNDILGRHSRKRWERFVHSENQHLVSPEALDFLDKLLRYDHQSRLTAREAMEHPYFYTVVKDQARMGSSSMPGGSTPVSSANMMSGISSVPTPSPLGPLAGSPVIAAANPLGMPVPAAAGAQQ

[3] = target: SRSF protein kinase 2 (Homo sapiens) (UniProt P78362); experiment: SRPK2(h) Eurofins kinase panel; details: Compound concentration 1.0 uM
Sequence of SRSF protein kinase 2 (Homo sapiens) (P78362 whole entry, looked up): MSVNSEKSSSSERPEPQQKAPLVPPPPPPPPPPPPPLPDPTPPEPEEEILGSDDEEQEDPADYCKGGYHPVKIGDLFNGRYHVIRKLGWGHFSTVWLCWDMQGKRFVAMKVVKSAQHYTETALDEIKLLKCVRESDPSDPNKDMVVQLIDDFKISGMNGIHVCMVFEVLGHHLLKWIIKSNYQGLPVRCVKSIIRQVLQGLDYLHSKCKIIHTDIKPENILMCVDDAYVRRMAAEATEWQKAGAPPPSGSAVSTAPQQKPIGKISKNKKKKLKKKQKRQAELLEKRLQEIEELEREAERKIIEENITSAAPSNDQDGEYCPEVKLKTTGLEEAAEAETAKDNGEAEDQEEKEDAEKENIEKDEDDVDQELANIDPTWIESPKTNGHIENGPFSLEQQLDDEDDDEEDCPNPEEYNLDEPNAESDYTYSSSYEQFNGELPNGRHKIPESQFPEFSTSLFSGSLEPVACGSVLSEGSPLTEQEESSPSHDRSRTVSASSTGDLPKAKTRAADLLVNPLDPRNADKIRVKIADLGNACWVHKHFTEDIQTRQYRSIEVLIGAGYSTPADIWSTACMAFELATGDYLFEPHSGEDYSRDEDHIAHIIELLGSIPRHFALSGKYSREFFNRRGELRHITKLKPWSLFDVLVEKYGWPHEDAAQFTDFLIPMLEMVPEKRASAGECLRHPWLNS

[4] = target: T2, Rhodopsin kinase GRK7 (Homo sapiens) (UniProt Q8WTQ7); experiment: GRK7(h) Eurofins kinase panel; details: Compound concentration 1.0 uM
T2 sequence (whole entry): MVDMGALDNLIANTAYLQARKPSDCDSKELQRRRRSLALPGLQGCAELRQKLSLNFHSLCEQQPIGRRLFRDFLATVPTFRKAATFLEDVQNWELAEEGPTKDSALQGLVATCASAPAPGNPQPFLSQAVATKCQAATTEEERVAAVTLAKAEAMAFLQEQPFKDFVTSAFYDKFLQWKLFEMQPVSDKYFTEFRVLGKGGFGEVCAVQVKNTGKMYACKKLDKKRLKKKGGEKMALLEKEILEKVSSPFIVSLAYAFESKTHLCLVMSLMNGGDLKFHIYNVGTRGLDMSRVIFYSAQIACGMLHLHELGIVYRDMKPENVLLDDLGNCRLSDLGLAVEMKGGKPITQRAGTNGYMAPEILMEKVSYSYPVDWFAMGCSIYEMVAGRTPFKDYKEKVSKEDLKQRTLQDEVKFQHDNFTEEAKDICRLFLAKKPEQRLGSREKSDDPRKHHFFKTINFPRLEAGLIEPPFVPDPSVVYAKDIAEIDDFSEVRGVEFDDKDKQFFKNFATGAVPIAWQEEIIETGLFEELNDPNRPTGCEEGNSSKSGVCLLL

[5] = target: T3, Bone morphogenetic protein receptor type-2 (Homo sapiens) (UniProt Q13873); experiment: BMPR2(h) Eurofins kinase panel; details: Compound concentration 1.0 uM
T3 sequence (whole entry): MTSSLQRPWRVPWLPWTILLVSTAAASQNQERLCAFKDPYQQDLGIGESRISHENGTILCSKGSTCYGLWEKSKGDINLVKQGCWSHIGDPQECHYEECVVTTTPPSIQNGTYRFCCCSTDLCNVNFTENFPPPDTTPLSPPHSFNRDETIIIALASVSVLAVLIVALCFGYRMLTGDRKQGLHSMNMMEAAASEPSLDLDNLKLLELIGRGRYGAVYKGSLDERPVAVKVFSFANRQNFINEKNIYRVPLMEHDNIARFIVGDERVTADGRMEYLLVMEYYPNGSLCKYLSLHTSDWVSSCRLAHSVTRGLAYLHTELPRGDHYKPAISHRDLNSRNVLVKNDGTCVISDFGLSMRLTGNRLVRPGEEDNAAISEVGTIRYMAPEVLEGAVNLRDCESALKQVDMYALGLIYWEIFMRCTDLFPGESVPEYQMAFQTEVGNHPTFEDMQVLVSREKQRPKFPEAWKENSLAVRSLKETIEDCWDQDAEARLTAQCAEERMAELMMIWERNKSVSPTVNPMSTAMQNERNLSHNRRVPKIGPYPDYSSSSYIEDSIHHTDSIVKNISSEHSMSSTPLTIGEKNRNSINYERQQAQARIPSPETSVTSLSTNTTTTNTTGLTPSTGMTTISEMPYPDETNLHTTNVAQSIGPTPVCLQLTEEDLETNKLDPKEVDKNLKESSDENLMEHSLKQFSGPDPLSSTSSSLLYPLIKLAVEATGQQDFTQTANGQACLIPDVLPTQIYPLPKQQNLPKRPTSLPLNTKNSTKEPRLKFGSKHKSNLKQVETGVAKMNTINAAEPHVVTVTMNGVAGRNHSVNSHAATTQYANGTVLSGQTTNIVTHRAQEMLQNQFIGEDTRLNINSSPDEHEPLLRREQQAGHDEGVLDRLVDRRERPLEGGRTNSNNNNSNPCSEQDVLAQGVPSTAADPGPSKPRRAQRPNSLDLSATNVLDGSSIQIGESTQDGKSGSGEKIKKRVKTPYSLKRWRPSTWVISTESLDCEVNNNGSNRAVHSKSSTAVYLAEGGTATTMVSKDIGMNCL

SK-N-FI = experiment: SK-N-F1, control cell line Proliferation assay; format: functional, Homo sapiens; details: time 6 day
PC-3 = experiment: PC-3 cell line Proliferation assay; format: functional, Homo sapiens; details: time 6 day
[6] = target: Angiopoietin-1 receptor (Homo sapiens) (UniProt Q02763); experiment: Tie2 (h) Eurofins kinase panel; details: Compound concentration 1.0 uM
Sequence of Angiopoietin-1 receptor (Homo sapiens) (Q02763 whole entry): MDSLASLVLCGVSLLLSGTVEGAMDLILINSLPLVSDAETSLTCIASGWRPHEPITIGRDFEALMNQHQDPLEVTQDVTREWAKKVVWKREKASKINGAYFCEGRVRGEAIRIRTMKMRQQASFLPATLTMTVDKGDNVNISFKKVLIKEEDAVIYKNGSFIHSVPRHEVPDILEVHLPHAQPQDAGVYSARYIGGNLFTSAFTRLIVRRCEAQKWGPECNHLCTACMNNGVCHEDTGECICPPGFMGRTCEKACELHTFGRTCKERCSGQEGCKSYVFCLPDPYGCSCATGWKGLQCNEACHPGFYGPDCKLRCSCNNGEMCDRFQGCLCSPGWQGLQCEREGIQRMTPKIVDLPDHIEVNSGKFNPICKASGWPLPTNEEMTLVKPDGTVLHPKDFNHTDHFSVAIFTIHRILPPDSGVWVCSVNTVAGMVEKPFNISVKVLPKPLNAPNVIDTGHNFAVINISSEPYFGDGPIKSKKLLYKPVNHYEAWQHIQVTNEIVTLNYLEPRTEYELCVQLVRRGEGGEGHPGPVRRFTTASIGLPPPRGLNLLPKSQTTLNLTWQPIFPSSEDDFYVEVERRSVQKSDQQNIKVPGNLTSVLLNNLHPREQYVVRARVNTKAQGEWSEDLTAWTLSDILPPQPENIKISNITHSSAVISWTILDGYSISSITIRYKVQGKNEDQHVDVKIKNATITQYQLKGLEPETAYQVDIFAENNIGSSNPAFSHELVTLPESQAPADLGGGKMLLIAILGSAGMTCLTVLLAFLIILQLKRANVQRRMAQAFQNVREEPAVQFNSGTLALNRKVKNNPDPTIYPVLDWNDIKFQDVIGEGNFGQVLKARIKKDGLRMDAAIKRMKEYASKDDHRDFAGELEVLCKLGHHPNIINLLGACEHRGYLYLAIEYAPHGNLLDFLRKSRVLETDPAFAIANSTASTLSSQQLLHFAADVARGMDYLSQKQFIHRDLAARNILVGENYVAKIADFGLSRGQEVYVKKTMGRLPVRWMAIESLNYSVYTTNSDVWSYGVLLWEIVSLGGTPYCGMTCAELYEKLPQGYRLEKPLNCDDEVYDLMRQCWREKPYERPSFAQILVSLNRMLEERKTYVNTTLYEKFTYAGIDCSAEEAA

[7] = target: D(1A) dopamine receptor (Homo sapiens) (UniProt P21728); details: Compound concentration 10.0 uM
Sequence of D(1A) dopamine receptor (Homo sapiens) (P21728 whole entry): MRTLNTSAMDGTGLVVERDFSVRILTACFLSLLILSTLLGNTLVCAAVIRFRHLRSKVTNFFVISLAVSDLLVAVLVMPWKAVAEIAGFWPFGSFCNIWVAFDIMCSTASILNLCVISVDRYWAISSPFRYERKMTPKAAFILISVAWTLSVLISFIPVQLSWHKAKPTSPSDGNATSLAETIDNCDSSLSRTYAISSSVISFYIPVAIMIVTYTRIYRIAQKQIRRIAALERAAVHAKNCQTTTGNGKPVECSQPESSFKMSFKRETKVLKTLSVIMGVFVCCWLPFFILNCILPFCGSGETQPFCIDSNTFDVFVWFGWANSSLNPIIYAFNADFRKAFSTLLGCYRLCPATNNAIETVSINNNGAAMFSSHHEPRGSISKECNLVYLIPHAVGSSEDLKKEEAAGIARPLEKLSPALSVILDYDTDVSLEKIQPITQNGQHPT

[8] = target: Receptor tyrosine-protein kinase erbB-4 (Homo sapiens) (UniProt Q15303); experiment: ErbB4(h) Eurofins kinase panel; details: Compound concentration 1.0 uM
Sequence of Receptor tyrosine-protein kinase erbB-4 (Homo sapiens) (Q15303 whole entry): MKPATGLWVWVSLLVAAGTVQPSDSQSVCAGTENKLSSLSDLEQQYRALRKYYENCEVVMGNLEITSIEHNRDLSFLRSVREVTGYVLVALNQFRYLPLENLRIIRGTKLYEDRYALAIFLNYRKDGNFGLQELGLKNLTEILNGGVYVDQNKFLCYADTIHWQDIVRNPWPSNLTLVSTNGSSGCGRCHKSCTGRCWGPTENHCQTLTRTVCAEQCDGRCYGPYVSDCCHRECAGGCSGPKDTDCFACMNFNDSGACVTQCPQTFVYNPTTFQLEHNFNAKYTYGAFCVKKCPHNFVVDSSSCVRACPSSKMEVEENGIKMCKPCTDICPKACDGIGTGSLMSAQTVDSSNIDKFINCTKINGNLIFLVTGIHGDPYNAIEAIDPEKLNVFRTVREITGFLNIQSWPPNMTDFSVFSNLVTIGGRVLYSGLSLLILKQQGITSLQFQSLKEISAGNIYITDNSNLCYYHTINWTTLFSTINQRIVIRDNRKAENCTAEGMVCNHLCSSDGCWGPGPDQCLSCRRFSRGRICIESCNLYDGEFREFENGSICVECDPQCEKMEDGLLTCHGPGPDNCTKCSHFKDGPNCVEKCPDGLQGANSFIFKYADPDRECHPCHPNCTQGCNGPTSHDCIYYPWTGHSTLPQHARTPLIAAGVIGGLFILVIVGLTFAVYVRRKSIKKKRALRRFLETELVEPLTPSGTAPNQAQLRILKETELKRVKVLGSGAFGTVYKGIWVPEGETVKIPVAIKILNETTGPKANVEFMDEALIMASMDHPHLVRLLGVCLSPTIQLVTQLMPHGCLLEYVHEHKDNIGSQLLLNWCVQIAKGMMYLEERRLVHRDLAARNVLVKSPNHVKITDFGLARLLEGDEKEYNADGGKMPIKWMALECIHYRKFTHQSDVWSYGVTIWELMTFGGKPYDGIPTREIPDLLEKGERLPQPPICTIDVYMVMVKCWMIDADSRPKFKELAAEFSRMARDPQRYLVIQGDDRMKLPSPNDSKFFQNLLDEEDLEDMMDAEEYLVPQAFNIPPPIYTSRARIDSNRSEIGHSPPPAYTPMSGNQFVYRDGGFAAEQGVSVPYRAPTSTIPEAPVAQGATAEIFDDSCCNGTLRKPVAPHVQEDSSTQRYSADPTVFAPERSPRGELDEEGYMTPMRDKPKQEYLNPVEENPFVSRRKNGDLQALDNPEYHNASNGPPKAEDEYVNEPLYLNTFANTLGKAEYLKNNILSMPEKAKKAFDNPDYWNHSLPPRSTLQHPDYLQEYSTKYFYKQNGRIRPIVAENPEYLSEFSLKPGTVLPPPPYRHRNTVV

CCc1ccccc1C(=O)Nc1n[nH]c2c(C)c(F)c(C3C(C#N)=C(C)N(C)C(C)=C3C#N)cc12 [BAY-3827]
% residual kinase activity [1]: 26%
% residual kinase activity [2]: 93%
% residual kinase activity [3]: 83%
% residual kinase activity [4]: 78%
% residual kinase activity [5]: 104%
Cell Proliferation IC50 (SK-N-FI): 21.2 µM
Cell Proliferation IC50 (PC-3): >10 µM
% residual kinase activity [6]: 81%
inhibition [7]: 67.4%
% residual kinase activity [8]: 101%
